Our source for the IC50 values is patent publication US11878965B2, “Inhibitors of peptidylarginine deiminases” (Gilead Sciences, Inc., priority 2020, dated 2024).

This assay addresses human PAD4 (Homo sapiens (Human), UniProt Q9UM07). Nature of the assay: In Vitro PAD4 BAEE Biochemical Assay. Conditions: geometric mean of multiple experiments. The method, boiled down:
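Deimination of BAEE substrate (3 mM) measured as ammonia via o-phthalaldehyde–DTT isoindole fluorescence, 405/535 nm. Tag-free bacterially expressed human PAD4 at 5 nM with 2 mM calcium chloride, pH 7.6 MOPS buffer, 30 min compound preincubation then 2 h reaction, both at 25 °C.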

[1] abbreviates: human PAD4, BAEE substrate, 5 nM PAD4, 2 mM calcium chloride, 3 mM BAEE.

Chain of human PAD4 (Q9UM07 2-663): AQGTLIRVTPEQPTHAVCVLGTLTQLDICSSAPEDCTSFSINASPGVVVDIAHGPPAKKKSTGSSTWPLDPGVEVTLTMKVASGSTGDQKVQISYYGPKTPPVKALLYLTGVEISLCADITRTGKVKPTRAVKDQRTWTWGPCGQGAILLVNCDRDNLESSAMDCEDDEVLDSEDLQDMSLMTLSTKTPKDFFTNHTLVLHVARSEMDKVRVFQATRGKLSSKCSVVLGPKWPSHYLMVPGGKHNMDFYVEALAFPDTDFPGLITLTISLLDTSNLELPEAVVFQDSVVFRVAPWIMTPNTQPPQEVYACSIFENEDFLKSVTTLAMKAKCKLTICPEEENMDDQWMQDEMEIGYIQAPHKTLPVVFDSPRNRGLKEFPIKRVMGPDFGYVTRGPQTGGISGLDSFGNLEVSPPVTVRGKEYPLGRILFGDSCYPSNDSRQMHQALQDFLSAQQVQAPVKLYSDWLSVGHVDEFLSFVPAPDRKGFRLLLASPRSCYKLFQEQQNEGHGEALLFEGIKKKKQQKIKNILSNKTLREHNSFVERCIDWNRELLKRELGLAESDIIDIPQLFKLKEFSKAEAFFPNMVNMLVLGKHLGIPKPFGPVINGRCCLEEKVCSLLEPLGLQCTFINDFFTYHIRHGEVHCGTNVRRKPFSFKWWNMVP

Regarding `COc1cc(C(=O)N2CCC[C@@H](N)C2)cc2nc(-c3cc4ccc(N(C)S(=O)(=O)C5CC5)nc4n3CC3CC3)n(C)c12` [Example 8, (R)-N-(2-(5-(3-aminopiperidine-1-carbonyl)-7-methoxy-1-methyl-1H-benzo[d]imidazol-2-yl)-1-(cyclopropylmethyl)-1H-pyrrolo [2,3-b]pyridin-6-yl)-N-methylcyclopropanesulfonamide], the IC50 under setting [1] came out at 190 nM. On the same count and under the same terms, under `COc1cc(C(=O)N2[C@H]3CC[C@@H]2[C@H](N)C3)cc2nc(-c3cc4ccc([C@@H](C)NC(=O)c5ccccc5)nc4n3CC3CC3)n(C3CC3)c12` [Example 129, N-((R)-1-(2-(5-((1R,2R,4S)-2-amino-7-azabicyclo[2.2.1]heptane-7-carbonyl)-1-cyclopropyl-7-methoxy-1H-benzo[d]imidazol-2-yl)-1-(cyclopropylmethyl)-1H-pyrrolo[2,3-b]pyridin-6-yl)ethyl)benzamide] stands 86 nM; under “(S)-2-(1-(cyclopropylmethyl)-6- ((N-(difluoromethyl) methyl)sulfonamido)-1H- pyrrolo[2,3-b]pyridin-2-yl)- N-(4,4-difluoropiperidin- 3-yl)-6-fluoro- 1-methyl-1H-benzo[d] imidazole-5-carboxamide [Example 92]”, 617 nM.

In the case of `CCN(C(=O)OC)c1ccc2cc(-c3nc4cc(C(=O)N5CCC[C@@H](N)C5)ccc4n3C3CC3)n(CC3CC3)c2n1` [Example 112, (R)-methyl (2-(5-(3-aminopiperidine-1-carbonyl)-1-cyclopropyl-1H-benzo[d]imidazol-2-yl)-1-(cyclopropylmethyl)-1H-pyrrolo [2,3-b]pyridin-6-yl) (ethyl)carbamate], the 50% inhibitory concentration (IC50) under setting [1] stood at 5150 nM. Still for that read-out and setting: under `COc1cc(C(=O)N2C[C@H](N)CCN2C)cc2nc(-c3cc4ccc([C@@H](C)NC(=O)c5cc(F)cc(F)c5C)nc4n3CC3CC3)n(C)c12` [Example 213, N-((R)-1-(2-(5-((R)-5-amino-2-methylhexahydropyridazine-1-carbonyl)-7-methoxy-1-methyl-1H-benzo[d]imidazol-2-yl)-1-(cyclopropylmethyl)-1H-pyrrolo[2,3-b]pyridin-6-yl)ethyl)-3,5-difluoro-2-methylbenzamide] stands 134 nM; under `COc1cc(C(=O)N2C[C@H](N)CCN2C)cc2nc(-c3cc4ccc([C@@H](C)NC(=O)c5c(C)cccc5C(F)(F)F)nc4n3CC3CC3)n(C)c12` [Example 184, N-((R)-1-(2-(5-((R)-5-amino-2-methylhexahydropyridazine-1-carbonyl)-7-methoxy-1-methyl-1H-benzo[d]imidazol-2-yl)-1-(cyclopropylmethyl)-1H-pyrrolo[2,3-b]pyridin-6-yl)ethyl)-2-methyl-6-(trifluoromethyl)benzamide], 204 nM. With `COc1cc(C(=O)N2C[C@H](N)CC[C@@H]2C)cc2nc(-c3cc4ccc(-c5cccnc5N5CCCC5)nc4n3CC3CC3)n(C)c12` [Example 263, ((2S,5R)-5-amino-2-methylpiperidin-1-yl)(2-(1-(cyclopropylmethyl)-6-(2-(pyrrolidin-1-yl)pyridin-3-yl)-1H-pyrrolo[2,3-b]pyridin-2-yl)-7-methoxy-1-methyl-1-benzo[d]imidazol-5-yl)methanone], the IC50 under setting [1] was found to be 687 nM. In the case of `CCN(c1ccc2cc(-c3nc4cc(C(=O)N5CCC[C@@H](N)C5)cc(OC)c4n3C)n(CC3CC3)c2n1)S(C)(=O)=O` [Example 5, (R)-N-(2-(5-(3-aminopiperidine-1-carbonyl)-7-methoxy-1-methyl-1H-benzo[d]imidazol-2-yl)-1-(cyclopropylmethyl)-1H-pyrrolo [2,3-b]pyridin-6-yl)-N-ethylmethanesulfonamide], the IC50 under setting [1] was 78.6 nM.

Regarding `COc1cc(C(=O)N2[C@H]3CC[C@@H]2[C@H](N)C3)cc2nc(-c3cc4ccc(N(C(C)C)S(C)(=O)=O)nc4n3CC3CC3)n(C)c12` [Example 84, N-(2-(5-((1R,2R,4S)-2-amino-7-azabicyclo[2.2.1]heptane-7-carbonyl)-7-methoxy-1-methyl-1H-benzo[d]imidazol-2-yl)-1-(cyclopropylmethyl)-1H-pyrrolo[2,3-b]pyridin-6-yl)-N-isopropylmethanesulfonamide], the IC50 under setting [1] turned out to be 58.3 nM. On the same count and under the same terms, the value for `Cc1cc2c(cc1C(=O)N1CCC[C@@H](N)C1)nc(-c1cc3ccc(N(C(F)F)S(C)(=O)=O)nc3n1CC1CC1)n2C1CC1` [Example 60, (R)-N-(2-(5-(3-aminopiperidine-1-carbonyl)-1-cyclopropyl-6-methyl-1H-benzo[d]imidazol-2-yl)-1-(cyclopropylmethyl)-1H-pyrrolo[2,3-b]pyridin-6-yl)-N-(difluoromethyl) methanesulfonamide] was 2210 nM. Turning to `COc1cc(C(=O)N2CCC[C@@H](N)[C@H]2C)cc2nc(-c3cc4ccc(N=S(C)(C)=O)nc4n3CC3CC3)n(C)c12` [Example 95, ((2-(5-((2R,3R)-3-amino-2-methylpiperidine-1-carbonyl)-7-methoxy-1-methyl-1H-benzo[d]imidazol-2-yl)-1-(cyclopropylmethyl)-1H-pyrrolo [2,3-b]pyridin-6-yl)imino)dimethyl-16-sulfanone], under setting [1], the IC50 was determined as 1570 nM.

Regarding `COc1cc(C(=O)N2C[C@H](N)[C@@H]3CC[C@H]2C3)cc2nc(-c3cc4ccc([C@@H](C)NC(=O)C56CC(F)(C5)C6)nc4n3CC3CC3)n(C3CC3)c12` [Example 317, N-((R)-1-(2-(5-((1S,4R,5R)-4-amino-2-azabicyclo[3.2.1]octane-2-carbonyl)-1-cyclopropyl-7-methoxy-1H-benzo[d]imidazol-2-yl)-1-(cyclopropylmethyl)-1H-pyrrolo[2,3-b]pyridin-6-yl)ethyl)-3-fluorobicyclo[1.1.1]pentane-1-carboxamide], the IC50 (recombinant PAD4 5 nM, 2 mM calcium chloride, 3 mM BAEE substrate) was 124 nM. For the compound `COc1cc(C(=O)N2C[C@H](N)CCN2C)cc2nc(-c3cc4ccc([C@@H](C)NC(=O)[C@@H]5CC5(F)F)nc4n3CC3CC3)n(C)c12` [Example 168, (S)-N-((R)-1-(2-(5-((R)-5-amino-2-methylhexahydropyridazine-1-carbonyl)-7-methoxy-1-methyl-1H-benzo[d]imidazol-2-yl)-1-(cyclopropylmethyl)-1H-pyrrolo[2,3-b]pyridin-6-yl)ethyl)-2,2-difluorocyclopropane-1-carboxamide], the IC50 under setting [1] was found to be 102 nM.

For the compound `COc1cc(C(=O)N2C[C@H](N)CCN2C)cc2nc(-c3cc4ccc([C@@H](C)NC(=O)C5(CF)CC5)nc4n3CC3CC3)n(C)c12` [Example 190, N-((R)-1-(2-(5-((R)-5-amino-2-methylhexahydropyridazine-1-carbonyl)-7-methoxy-1-methyl-1H-benzo[d]imidazol-2-yl)-1-(cyclopropylmethyl)-1H-pyrrolo[2,3-b]pyridin-6-yl)ethyl)-1-(fluoromethyl)cyclopropane-1-carboxamide], the IC50 under setting [1] was 89.7 nM. The same measure, in the same setting: under `COc1cc(C(=O)N2CCC[C@@H](N)C2)cc2nc(-c3cc4ccc(N(C5CCC5)S(C)(=O)=O)nc4n3CC3CC3)n(C)c12` [Example 15, (R)-N-(2-(5-(3-aminopiperidine-1-carbonyl)-7-methoxy-1-methyl-1H-benzo[d]imidazol-2-yl)-1-(cyclopropylmethyl)-1H-pyrrolo [2,3-b]pyridin-6-yl)-N-cyclobutylmethanesulfonamide] stands 136 nM. Still for that read-out and setting: under `COc1cc(C(=O)N2C[C@H](N)CCN2C)cc2nc(-c3cc4ccc([C@@H](C)NC(=O)c5nccc(C(F)(F)F)n5)nc4n3CC3CC3)n(C)c12` [Example 182, N-((R)-1-(2-(5-((R)-5-amino-2-methylhexahydropyridazine-1-carbonyl)-7-methoxy-1-methyl-1H-benzo[d]imidazol-2-yl)-1-(cyclopropylmethyl)-1H-pyrrolo[2,3-b]pyridin-6-yl)ethyl)-4-(trifluoromethyl)pyrimidine-2-carboxamide] stands 104 nM.

With `COc1cc(C(=O)N2CCC[C@@H](N)C2)cc2nc(-c3cc4ccc(N(C)S(=O)(=O)C(C)C)nc4n3CC3CC3)n(C)c12` [Example 9, (R)-N-(2-(5-(3-aminopiperidine-1-carbonyl)-7-methoxy-1-methyl-1H-benzo[d]imidazol-2-yl)-1-(cyclopropylmethyl)-1H-pyrrolo [2,3-b]pyridin-6-yl)-N-methylpropane-2-sulfonamide], under setting [1], the IC50 was determined as 238 nM. On the same count and under the same terms, under `COc1cc(C(=O)N2CCC[C@@H](N)C2)cc2nc(-c3cc4ccc(N(C)S(C)(=O)=O)nc4n3CC3CC3)n(C)c12` [Example 3, (R)-N-(2-(5-(3-aminopiperidine-1-carbonyl)-7-methoxy-1-methyl-1H-benzo[d]imidazol-2-yl)-1-(cyclopropylmethyl)-1H-pyrrolo [2,3-b]pyridin-6-yl)-N-methylmethanesulfonamide] stands 122 nM; under `COc1cc(C(=O)N2[C@H]3CC[C@@H]2[C@H](N)C3)cc2nc(-c3cc4ccc([C@@H](C)NC(=O)C56CC(C#N)(C5)C6)cc4n3CC3CC3)n(C)c12` [Example 134, N-((R)-1-(2-(5-((1R,2R,4S)-2-amino-7-azabicyclo[2.2.1]heptane-7-carbonyl)-7-methoxy-1-methyl-1H-benzo[d]imidazol-2-yl)-1-(cyclopropylmethyl)-1H-indol-6-yl)ethyl)-3-cyanobicyclo[1.1.1]pentane-1-carboxamide], 18.2 nM. Same read-out and setting: the value for `COc1cc(C(=O)N2[C@H]3CC[C@@H]2[C@H](N)C3)cc2nc(-c3cc4ccc([C@@H](C)N5CCCC5=O)nc4n3CC3CC3)n(C3CC3)c12` [Example 245] was 31.7 nM.

With `C#CC(=O)N[C@@H]1CNC[C@H]1NC(=O)c1cc(OC)c2c(c1)nc(-c1cc3ccc(N(C(F)F)S(C)(=O)=O)nc3n1CC1CC1)n2C` [Example 81, 2-(1-(cyclopropylmethyl)-6-((N-(difluoromethyl)methyl)sulfonamido)-1H-pyrrolo[2,3-b]pyridin-2-yl)-7-methoxy-1-methyl-N-((3R,4R)-4-propiolamidopyrrolidin-3-yl)-1H-benzo[d]imidazole-5-carboxamide], the half-maximal inhibitory concentration (IC50) under setting [1] worked out at 4630 nM.

One may read the IC50 as the concentration that inhibits the measured activity by half.
